US8207175B2, “Inhibitor compounds” (University Court of the University of Dundee, priority 2005, dated 2012)
Read-outs that look alike come from different tables or passages of the source. Blank lines part the entries; values can stand above or below the compound they belong to.

Key:
AfChiB1 [1] = biological target: T1, AfChiB1 (Aspergillus fumigatus, UniProt Q873X9); assay: biochemical; type: biochemical
Description: AfChiB1 was expressed, purified and inhibition studies performed as previously described [F. V. Rao, D. R. Houston, R. G. Boot, J. M. F. G. Aerts, M. Hodkinson, D. J. Adams, K. Shiomi, S. Omura, and D. M. F. van Aalten, Specificity and affinity of natural product cyclopentapeptide inhibitors against Aspergillus fumigatus, human and bacterial chitinases, Chemistry & Biology, 12, 65-76 (2005)].
Briefly, AfChiB1 was overexpressed as a GST-fusion protein in E. coli and purified using a combination of affinity and size-exclusion chromatography.
AfChiB1 inhibition was studied using the fluorogenic substrate 4-methylumbelliferyl-β-D-N,N′-diacetylchitobiose (4MU-GlcNAc2; Sigima). Briefly, in a final volume of 50 μl, 2 nM of enzyme was incubated with 20 μM substrate in McIlvain buffer (100 mM citric acid, 200 mM sodium phosphate, pH 5.5) containing 0.1 mg/ml BSA, for 10 min at 37° C. in the presence of different concentration of inhibitors. After the addition of 25 μl of 3 M glycine-NaOH, pH 10.3, the fluorescence of the liberated 4-methylumbelliferone (4MU) was quantified using a Flx 800 microtitrepiate fluorescence reader (Bio-Tek Instruments Inc.), with excitation and emission wavelengths of 360 nm and 460 nm, respectively, using 40 nm slits. Experiments were performed in triplicate. […]
The mode of action was determined by plotting the data as Lineweaver-Burk plots, and by fitting all data to the standard competitive inhibition equation with the GraFit software [R. J. Leatherbarrow, GraFit Version 5, Erithacus Software Ltd., Horley, U.K., (2001)].
The compounds according to an embodiment of the present invention were prepared according to the following methods, and further evaluated as inhibitors against AfChiB using the fluorescence-based assay described herein using 4methylumbelliferyl β-D-N,N-deacetyl-chitobioside as substrate. The assay results are shown in the accompanying tables 3-6.

[2] = biological target: H.Chito (human chitotriosidase) (Homo sapiens, UniProt Q13231); assay: Further inhibition studies, human chitotriosidase (Table 2); type: biochemical
Description: (§1) Inhibition Studies on Human and Mouse AMCase and Chitotriosidase

human chitotriosidase = biological target: T2, human chitotriosidase (Homo sapiens, UniProt Q13231); assay: Human chitotriosidase inhibition, 4MU-GlcNAc2 chitinase assay; type: biochemical; conditions: 22 μM substrate, 1 nM enzyme, 30° C. for 30 minutes; read-out: hCHT IC50
T2 construct: made in house; host or cells: HEK 293 (transient transfection, supernatant)

[3] = biological target: cellulase from Aspergillus niger; assay: Cellulase assay, 4-methylumbelliferyl-β-D-cellobioside; type: biochemical; conditions: 5 nM enzyme, 20 μM substrate, 30 min at 37° C.
Procedure: (§2) Additionally, for comparison, inhibition studies were performed on celluase from Aspergillus niger, phosphodiesterase 4A and lysozyme.
Commercially available […] from Aspergillus niger (Sigma: C-1184) was assayed, using the fluorogenic substrate 4-methylumbelliferyl-β-D-cellobioside (Sigma M-6018). In a final volume of 50 μl, 5 nM of enzyme was incubated with 20 μM substrate in McIlvain buffer containing 0.1 mg/ml BSA, for 30 min at 37° C. in the presence of different concentration of inhibitors. After the addition of 25 μl of 3 M glycine-NaOH, pH 10.3, the fluorescence of the liberated 4-methylumbelliferone (4MU) was quantified using an Flx 800 microtitreplate fluorescence reader (Bio-Tek Instruments Inc.), with excitation and emission wavelengths of 360 nm and […], respectively, using 40 nm slits. Experiments were performed in triplicate. Production of 4MU was linear with time for the incubation period used, and less than 10% of available substrate was hydrolyzed.

M.AMCase (mouse AMCase) = M.AMCase (mouse AMCase) (Mus musculus, UniProt Q91XA9); assay: Further inhibition studies, mouse AMCase (Table 2); type: biochemical
Description: as §1

human AMCase = biological target: T3, human AMCase (Homo sapiens, UniProt Q9BZP6); assay: Human AMCase inhibition, 4MU-GlcNAc2 chitinase assay; type: biochemical; conditions: 1 mM inhibitor
T3 construct: made in house; host or cells: HEK 293 (transient transfection, supernatant)

[4] = biological target: T4, Chicken egg white lysozyme (Gallus gallus, UniProt P00698); assay: Lysozyme assay, EnzCheck Lysozyme kit; type: biochemical; conditions: 500 μM inhibitor
T4 construct: Chicken egg white lysozyme and its substrate; purchased Molecular probes EnzCheck Lysozyme kit; host or cells: chicken egg white
Procedure: as §2
Lysozyme was assayed using the EnzCheck Lysozyme kit from Molecular probes as described by the manufacturer. Chicken egg white lysozyme and its substrate, fluorescein labeled Micrococcus lysodeikyius cell wall (DQ Lysozyme substrate) were used to determine compound inhibition. Briefly, 6.25 units of lysozyme were incubated with 25 μg of DQ substrate with or without various concentrations of inhibitor in a total volume of 100 μl at 37° C. for 30 minutes. The fluorescence was determined using excitation and emission wavelengths of 360 nm and 460 nm, respectively. The potency of inhibitors (IC50) was determined from a dose-response curve. Experiments were performed in triplicate.

H.AMCase (human AMCase) = H.AMCase (human AMCase) (Homo sapiens, UniProt Q9BZP6); assay: Further inhibition studies, human AMCase (Table 2); type: biochemical
Description: as §1

[5] = biological target: M.Chito (mouse chitotriosidase) (Mus musculus, UniProt Q9D7Q1); assay: Further inhibition studies, mouse chitotriosidase (Table 2); type: biochemical
Description: as §1

AfChiB1 [6] = biological target: T1, AfChiB1; assay: AfChiB1 binding (Kd)
[7] = biological target: Phosphodiesterase 4A (PDE4A) (Homo sapiens, UniProt P27815); conditions: PDE-SPA assay, result in words
[8] = Table 5, N3 compounds, against AfChiB, read-out: IC50
[9] = Table 6, N7 compounds, against AfChiB, read-out: IC50
[10] = Trio substrate, pH 5.2, read-out: H.Chito Trio pH 5.2 (IC50)
[11] = mouse AMCase, Bio substrate, pH 4.5, read-out: M.AMCase Bio pH 4.5 (IC50)
[12] = human AMCase, Bio substrate, pH 4.5, read-out: H.AMCase Bio pH 4.5 (IC50)
[13] = mouse chitotriosidase, Bio substrate, pH 5.2, read-out: M.Chito Bio pH 5.2 (IC50)
[14] = 2 nM enzyme, 20 μM substrate, pH 5.5, 10 min at 37° C., read-out: AfChiB1 IC50

Sequence of M.Chito (mouse chitotriosidase) (Q9D7Q1 22-464): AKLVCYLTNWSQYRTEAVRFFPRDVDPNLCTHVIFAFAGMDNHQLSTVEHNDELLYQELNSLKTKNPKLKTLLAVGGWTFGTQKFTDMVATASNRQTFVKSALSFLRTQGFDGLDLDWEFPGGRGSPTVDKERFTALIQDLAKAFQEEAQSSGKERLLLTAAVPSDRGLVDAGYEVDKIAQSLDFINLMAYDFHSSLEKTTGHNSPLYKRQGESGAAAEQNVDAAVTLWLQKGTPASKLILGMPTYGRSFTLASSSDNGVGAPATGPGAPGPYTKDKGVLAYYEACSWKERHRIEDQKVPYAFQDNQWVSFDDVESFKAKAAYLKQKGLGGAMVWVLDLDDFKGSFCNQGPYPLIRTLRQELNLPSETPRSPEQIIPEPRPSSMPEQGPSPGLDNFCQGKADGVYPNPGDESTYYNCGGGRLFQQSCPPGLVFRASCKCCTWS
Sequence of H.AMCase (human AMCase) (Q9BZP6 22-476): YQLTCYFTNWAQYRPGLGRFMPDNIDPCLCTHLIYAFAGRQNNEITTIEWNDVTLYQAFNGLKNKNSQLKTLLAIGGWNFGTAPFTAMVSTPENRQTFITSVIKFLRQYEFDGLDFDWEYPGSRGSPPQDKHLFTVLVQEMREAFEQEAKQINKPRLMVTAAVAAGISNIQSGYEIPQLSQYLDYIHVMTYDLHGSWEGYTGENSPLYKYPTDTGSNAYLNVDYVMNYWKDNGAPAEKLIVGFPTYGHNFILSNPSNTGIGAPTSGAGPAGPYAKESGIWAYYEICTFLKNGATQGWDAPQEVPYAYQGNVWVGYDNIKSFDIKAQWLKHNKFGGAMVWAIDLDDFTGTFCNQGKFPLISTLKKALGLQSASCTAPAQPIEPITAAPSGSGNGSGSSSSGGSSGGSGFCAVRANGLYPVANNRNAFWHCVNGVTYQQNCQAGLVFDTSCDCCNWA
Sequence of H.Chito (human chitotriosidase) (Q13231 22-466): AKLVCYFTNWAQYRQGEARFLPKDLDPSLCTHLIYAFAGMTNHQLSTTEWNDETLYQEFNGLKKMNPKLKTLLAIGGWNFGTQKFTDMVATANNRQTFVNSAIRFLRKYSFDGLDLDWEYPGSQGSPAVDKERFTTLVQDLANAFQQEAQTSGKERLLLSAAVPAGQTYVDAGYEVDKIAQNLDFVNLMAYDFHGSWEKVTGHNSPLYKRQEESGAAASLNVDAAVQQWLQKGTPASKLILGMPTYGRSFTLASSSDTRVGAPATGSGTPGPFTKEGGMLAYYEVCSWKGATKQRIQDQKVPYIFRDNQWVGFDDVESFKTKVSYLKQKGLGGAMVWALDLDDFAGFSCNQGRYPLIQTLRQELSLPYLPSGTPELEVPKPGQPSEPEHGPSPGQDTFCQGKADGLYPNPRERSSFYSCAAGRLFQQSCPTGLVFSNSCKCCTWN
T4 sequence (P00698 19-147): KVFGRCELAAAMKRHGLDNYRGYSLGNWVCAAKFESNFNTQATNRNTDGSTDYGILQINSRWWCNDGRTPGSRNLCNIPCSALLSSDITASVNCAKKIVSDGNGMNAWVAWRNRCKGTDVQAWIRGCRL
Sequence of M.AMCase (mouse AMCase) (Q91XA9 22-473): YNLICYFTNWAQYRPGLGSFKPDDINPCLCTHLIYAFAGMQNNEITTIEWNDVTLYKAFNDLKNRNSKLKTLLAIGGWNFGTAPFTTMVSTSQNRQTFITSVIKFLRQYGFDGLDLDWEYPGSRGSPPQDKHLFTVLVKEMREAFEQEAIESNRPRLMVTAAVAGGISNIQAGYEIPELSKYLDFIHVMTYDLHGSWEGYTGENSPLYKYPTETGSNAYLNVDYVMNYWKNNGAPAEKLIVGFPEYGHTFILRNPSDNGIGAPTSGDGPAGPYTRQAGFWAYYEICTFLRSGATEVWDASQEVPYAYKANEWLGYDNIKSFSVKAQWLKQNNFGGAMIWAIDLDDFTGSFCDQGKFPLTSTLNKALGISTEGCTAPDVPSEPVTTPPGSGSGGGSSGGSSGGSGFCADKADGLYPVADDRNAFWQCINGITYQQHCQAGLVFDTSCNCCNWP
T3 sequence (Q9BZP6 22-476): as the sequence (Q9BZP6 22-476) above
T2 sequence (Q13231 22-466): as the sequence (Q13231 22-466) above
Sequence of Phosphodiesterase 4A (PDE4A) (P27815 whole entry): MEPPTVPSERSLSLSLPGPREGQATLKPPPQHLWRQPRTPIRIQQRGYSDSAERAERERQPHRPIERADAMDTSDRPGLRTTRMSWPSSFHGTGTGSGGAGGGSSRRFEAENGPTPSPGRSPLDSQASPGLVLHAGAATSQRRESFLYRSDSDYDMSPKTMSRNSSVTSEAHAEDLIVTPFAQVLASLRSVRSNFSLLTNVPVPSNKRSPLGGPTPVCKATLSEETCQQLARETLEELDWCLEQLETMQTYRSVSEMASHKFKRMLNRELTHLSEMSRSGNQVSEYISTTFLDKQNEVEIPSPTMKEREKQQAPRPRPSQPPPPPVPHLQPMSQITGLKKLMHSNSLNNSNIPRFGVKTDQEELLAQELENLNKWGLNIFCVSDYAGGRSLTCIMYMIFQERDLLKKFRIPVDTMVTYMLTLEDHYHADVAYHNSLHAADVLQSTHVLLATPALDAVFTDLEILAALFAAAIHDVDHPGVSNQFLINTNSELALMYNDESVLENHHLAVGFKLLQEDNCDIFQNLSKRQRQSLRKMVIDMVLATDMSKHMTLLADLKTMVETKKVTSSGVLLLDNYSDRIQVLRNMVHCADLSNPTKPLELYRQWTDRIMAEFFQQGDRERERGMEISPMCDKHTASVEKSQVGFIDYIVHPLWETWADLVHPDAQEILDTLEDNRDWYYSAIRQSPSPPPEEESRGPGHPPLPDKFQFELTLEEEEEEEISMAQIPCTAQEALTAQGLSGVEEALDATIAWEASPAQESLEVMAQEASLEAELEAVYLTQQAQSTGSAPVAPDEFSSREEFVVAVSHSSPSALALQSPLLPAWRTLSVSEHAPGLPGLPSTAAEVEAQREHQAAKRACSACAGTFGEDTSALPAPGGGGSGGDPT

SMILES: Cn1cnc2c1c(=O)n(CCn1c(=O)c3c(ncn3C)n(C)c1=O)c(=O)n2C [Compound 1]
IC50 (AfChiB1 [1]): 6 µM

SMILES: Cn1cnc2c1c(=O)n(CCCn1c(=O)c3c(ncn3C)n(C)c1=O)c(=O)n2C [Compound 2]
IC50 (AfChiB1 [1]): 0.23 µM

SMILES: Cn1cnc2c1c(=O)n(CCCCn1c(=O)c3c(ncn3C)n(C)c1=O)c(=O)n2C [Compound 3]
IC50 (AfChiB1 [1]): 6 µM

SMILES: Cn1cnc2[nH]c(=O)n(CCCn3c(=O)c4c(ncn4C)n(C)c3=O)c(=O)c21 [Compound 9]
IC50 (AfChiB1 [1]; [8]): 0.086 µM

SMILES: CCn1c(=O)n(CCCn2c(=O)c3c(ncn3C)n(C)c2=O)c(=O)c2c1ncn2C [Compound 10]
IC50 (AfChiB1 [1]; [8]): 0.31 µM

SMILES: C=CCn1c(=O)n(CCCn2c(=O)c3c(ncn3C)n(C)c2=O)c(=O)c2c1ncn2C [Compound 11]
IC50 (AfChiB1 [1]; [8]): 0.14 µM

SMILES: CC(C)n1c(=O)n(CCCn2c(=O)c3c(ncn3C)n(C)c2=O)c(=O)c2c1ncn2C [Compound 12]
IC50 (AfChiB1 [1]; [8]): 0.52 µM

SMILES: Cn1cnc2c1c(=O)n(CCCn1c(=O)c3c(ncn3C)n(CCN)c1=O)c(=O)n2C [Compound 13]
IC50 (AfChiB1 [1]; [8]): 0.078 µM

SMILES: Cn1cnc2c1c(=O)n(CCCn1c(=O)c3c(ncn3C)n(CCO)c1=O)c(=O)n2C [Compound 14]
IC50 (AfChiB1 [1]; [8]): 0.18 µM

SMILES: Cn1cnc2c1c(=O)n(CCCn1c(=O)c3c(ncn3C)n(CCCN)c1=O)c(=O)n2C [Compound 15]
IC50 (AfChiB1 [1]; [8]): 0.44 µM

SMILES: Cn1cnc2c1c(=O)n(CCCn1c(=O)c3c(ncn3C)n(CCCO)c1=O)c(=O)n2C [Compound 16]
IC50 (AfChiB1 [1]; [8]): 0.44 µM

SMILES: Cn1c(=O)c2c(ncn2C)n(C)c1=O [caffeine]
IC50 ([2]; H.Chito Bio pH 5.2 (IC50), Bio substrate): 650 µM
IC50 [2, 10]: 850 µM
IC50 (human chitotriosidase): 257 ± 8 µM
IC50 [3]: 1.25 ± 0.278 mM
IC50 (M.AMCase (mouse AMCase); [11]): 800 µM
hAMCase activity at 1 mM (human AMCase): 36%
Egg white lysozyme activity at 500 μM [4]: 100%
IC50 (H.AMCase (human AMCase); [12]): 500 µM
IC50 [5, 13]: > 1 mM

SMILES: CC(=O)CCCCn1c(=O)c2c(ncn2C)n(C)c1=O [pentoxifylline]
IC50 [2, 10]: 400 µM
Kd (AfChiB1 [6]): 43 ± 10 µM
IC50 (human chitotriosidase): 98 µM
IC50 [3]: 0.881 ± 0.319 mM
IC50 (M.AMCase (mouse AMCase); [11]): 400 µM
hAMCase activity at 1 mM (human AMCase): 49%
Egg white lysozyme activity at 500 μM [4]: 100%
inhibition of human phosphodiesterase-4 [7]: barely detectable
IC50 (H.AMCase (human AMCase); [12]): 400 µM
IC50 [5, 13]: ~1 mM
IC50 (AfChiB1 [1]; [14]): 126 µM
Ki (AfChiB1 [1]; competitive inhibitor, 5-30 μM substrate, fit to competitive inhibition equation): 37 µM

SMILES: Cn1c(=O)c2[nH]cnc2n(C)c1=O [theophylline]
IC50 [3]: 1.01 ± 0.159 mM
IC50 (M.AMCase (mouse AMCase)): ~1600 µM
Egg white lysozyme activity at 500 μM [4]: 100%
IC50 (H.AMCase (human AMCase)): ~2000 µM
IC50 [5]: > 2 mM
IC50 (AfChiB1 [1]; [14]): 1500 µM

More lines, now with the values ahead:

IC50 (AfChiB1 [1]; [9]): 0.2 µM
SMILES: Cn1cnc2c1c(=O)n(CCCn1c(=O)c3nc[nH]c3n(C)c1=O)c(=O)n2C [Compound 17]

IC50 (AfChiB1 [1]; [9]): 0.16 µM
SMILES: Cn1cnc2c1c(=O)n(CCCn1c(=O)c3c(ncn3CCC(=O)O)n(C)c1=O)c(=O)n2C [Compound 19]

IC50 (AfChiB1 [1]; [9]): 0.14 µM
SMILES: COC(=O)CCCn1cnc2c1c(=O)n(CCCn1c(=O)c3c(ncn3C)n(C)c1=O)c(=O)n2C [Compound 20]

IC50 (AfChiB1 [1]; [9]): 0.2 µM
SMILES: Cn1cnc2c1c(=O)n(CCCn1c(=O)c3c(ncn3CCCC(=O)O)n(C)c1=O)c(=O)n2C [Compound 21]

IC50 (AfChiB1 [1]; [9]): 0.3 µM
SMILES: COC(=O)CCCCn1cnc2c1c(=O)n(CCCn1c(=O)c3c(ncn3C)n(C)c1=O)c(=O)n2C [Compound 22]

IC50 (AfChiB1 [1]; [9]): 0.36 µM
SMILES: Cn1cnc2c1c(=O)n(CCCn1c(=O)c3c(ncn3CCCCC(=O)O)n(C)c1=O)c(=O)n2C [Compound 23]

IC50 (AfChiB1 [1]; [9]): 0.16 µM
SMILES: COC(=O)C=CCn1cnc2c1c(=O)n(CCCn1c(=O)c3c(ncn3C)n(C)c1=O)c(=O)n2C [Compound 24]

IC50 (AfChiB1 [1]; [9]): 0.42 µM
SMILES: Cn1cnc2c1c(=O)n(CCCn1c(=O)c3c(ncn3CC=CC(=O)O)n(C)c1=O)c(=O)n2C [Compound 25]
